Test results reported in patent publication US20260001928A1 (CORTERIA PHARMACEUTICALS, priority 2022, published 2026).
*1 amine or outer side, *2 acyl side, *3 side chain or, on linkers, in order; H or OH if unused. Where a SMILES comes first, the peptide text is derived from it. Side-chain parts run from the residue outwards. [ ]: non-standard residue; d: D form. The star is where a group is joined. C18 diacid = O=C(O)CCCCCCCCCCCCCCCCC(=O)*; C16 diacid = O=C(O)CCCCCCCCCCCCCCC(=O)*; γGlu = O=C(O)[C@H](CCC(=O)[*:2])N[*:1]; C12 diacid = O=C(O)CCCCCCCCCCC(=O)*; Api = NC1(C(=O)O)CCNCC1; Pentanoyl = CCCCC(=O)*; AEEA = NCCOCCOCC(=O)O; Aib = CC(C)(N)C(=O)O; Butyryl = CCCC(=O)*

Assays:
human CRF2a receptor = target: T1, human CRF2a receptor (Homo sapiens, UniProt Q13324); assay: Activity at human CRF2a receptor, cAMP functional assay in TeloHEAC cells; type: cell-based; conditions: TeloHEAC cells stably expressing human CRF2a receptor, relative to urocortin 2 (100 nM = 100%)
T1 construct: expressed in transfected cells; host or cells: TeloHEAC cells
T1 sequence (Q13324 1-411): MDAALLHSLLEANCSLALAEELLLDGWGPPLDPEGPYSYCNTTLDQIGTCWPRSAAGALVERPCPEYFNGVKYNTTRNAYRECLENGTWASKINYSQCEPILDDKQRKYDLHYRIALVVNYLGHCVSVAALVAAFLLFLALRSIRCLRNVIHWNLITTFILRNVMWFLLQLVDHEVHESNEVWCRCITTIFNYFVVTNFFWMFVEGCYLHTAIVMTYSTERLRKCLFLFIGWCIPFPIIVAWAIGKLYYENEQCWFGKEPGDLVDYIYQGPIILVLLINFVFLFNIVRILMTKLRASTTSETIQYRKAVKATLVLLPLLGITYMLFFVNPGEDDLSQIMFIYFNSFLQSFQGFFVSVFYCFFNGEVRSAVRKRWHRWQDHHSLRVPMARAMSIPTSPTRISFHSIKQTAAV
How it was run: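 TeloHEAC cells stably expressing human CRF2a (10000 cells/well) were treated with 16-point 1:2 compound dilutions in HBSS/20 mM HEPES with IBMX for 30 min at 37° C. cAMP was read by HTRF (665/620 nm ratio). EC50 was the concentration giving 50% activation, with 100 nM urocortin 2 set as 100%.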

CFR1R receptor = target: T2, CFR1R receptor (Homo sapiens, UniProt P34998); assay: Activity at anti-target CFR1R receptor, cAMP assay in CRF1R-overexpression CHO-K1 cells; type: cell-based; conditions: 100% = Sauvagine at 100 nM; for EC50: cAMP
T2 construct: host or cells: CHO-K1 (clone 2)
T2 sequence (P34998 24-415): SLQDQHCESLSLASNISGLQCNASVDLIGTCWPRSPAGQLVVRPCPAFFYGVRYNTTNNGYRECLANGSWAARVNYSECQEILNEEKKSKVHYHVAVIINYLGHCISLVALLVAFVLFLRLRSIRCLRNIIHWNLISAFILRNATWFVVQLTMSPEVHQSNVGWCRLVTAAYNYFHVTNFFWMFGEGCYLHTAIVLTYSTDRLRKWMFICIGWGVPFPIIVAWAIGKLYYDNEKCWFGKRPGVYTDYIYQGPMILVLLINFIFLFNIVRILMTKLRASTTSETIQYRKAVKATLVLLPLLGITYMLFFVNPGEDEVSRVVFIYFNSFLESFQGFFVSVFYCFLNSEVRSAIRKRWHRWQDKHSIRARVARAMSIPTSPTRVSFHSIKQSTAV
How it was run: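 The method mirrors that used with TeloHAEC cells. Here, thawed clone 2 cells seeded at 4000 cells/well are tested, and 100 nM Sauvagine sets the top of the activation scale.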

Structure (SMILES) | EC50 (human CRF2a receptor) [nM] | Emax (% I) (CFR1R receptor) | EC50 (CFR1R receptor) [nM]
CC[C@H](C)[C@H](NC(C)=O)C(=O)N[C@H](C(=O)N[C@@H](CC(C)C)C(=O)N[C@@H](CO)C(=O)N[C@@H](CC(C)C)C(=O)N[C@@H](CC(=O)O)C(=O)N[C@@H](C(=O)N1CCC[C@H]1C(=O)N[C@H](C(=O)N[C@@H](CCCCN)C(=O)N[C@@H](CC(C)C)C(=O)N[C@@H](CCCCNC(=O)CC[C@H](NC(=O)CCCCCCCCCCCCCCC(=O)O)C(=O)O)C(=O)N[C@@H](CCCCN)C(=O)N[C@H](C(=O)N[C@@H](CC(C)C)C(=O)N[C@@H](CC(C)C)C(=O)N[C@@H](CCC(=O)O)C(=O)N[C@@H](CCC(N)=O)C(=O)N[C@@H](CCC(=O)O)C(=O)N[C@@H](CCCCN)C(=O)N[C@@H](CCC(N)=O)C(=O)N[C@@H](CCCCN)C(=O)N[C@@H](C)C(=O)N[C@@H](CCC(N)=O)C(=O)N[C@@H](CCCNC(=N)N)C(=O)N[C@@H](CCC(=O)O)C(=O)N[C@@H](CCC(N)=O)C(=O)N[C@@H](C)C(=O)N[C@@H](CCC(=O)O)C(=O)N[C@H](C(=O)N[C@@H](CC(N)=O)C(=O)NC1(C(=O)N[C@@H](CCC(N)=O)C(=O)N[C@H](C(=O)N[C@@H](CC(C)C)C(=O)N[C@@H](C)C(=O)N[C@@H](CCC(N)=O)C(=O)N[C@H](C(N)=O)C(C)C)[C@@H](C)CC)CCNCC1)[C@@H](C)O)[C@@H](C)CC)[C@@H](C)CC)C(C)C)C(C)C [compound 152] (Ac-IVLSLD[dV]PIKLK([γGlu-C16 diacid])KILLEQEKQKAQREQAETN[Api]QILAQV-NH2) | 0.51 | 25 | > 250
CC[C@H](C)[C@H](NC(C)=O)C(=O)N[C@H](C(=O)N[C@@H](CC(C)C)C(=O)N[C@@H](CO)C(=O)N[C@@H](CC(C)C)C(=O)N[C@@H](CC(=O)O)C(=O)N[C@@H](C(=O)N1CCC[C@H]1C(=O)N[C@H](C(=O)N[C@@H](CCCCN)C(=O)N[C@@H](CC(C)C)C(=O)N[C@@H](CCCCNC(=O)CC[C@H](NC(=O)CCCCCCCCCCCCCCC(=O)O)C(=O)O)C(=O)N[C@@H](CCC(N)=O)C(=O)NC(C)(C)C(=O)N[C@@H](CC(C)C)C(=O)N[C@@H](CC(C)C)C(=O)N[C@@H](CCCCN)C(=O)N[C@@H](CCC(N)=O)C(=O)N[C@@H](CCC(=O)O)C(=O)N[C@@H](CCCNC(=N)N)C(=O)N[C@@H](CCC(N)=O)C(=O)N[C@@H](CCCCN)C(=O)N[C@@H](CCCCN)C(=O)N[C@@H](CCC(N)=O)C(=O)N[C@@H](CCCNC(=N)N)C(=O)N[C@@H](CCC(=O)O)C(=O)N[C@@H](CCC(N)=O)C(=O)N[C@@H](C)C(=O)N[C@@H](CCC(=O)O)C(=O)N[C@@H](CCCCN)C(=O)N[C@@H](CC(N)=O)C(=O)N[C@H](C(=O)N[C@@H](CCC(N)=O)C(=O)N[C@H](C(=O)N[C@@H](CC(C)C)C(=O)N[C@@H](CCC(=O)O)C(=O)N[C@@H](CCC(N)=O)C(=O)N[C@H](C(N)=O)C(C)C)[C@@H](C)CC)C(C)C)[C@@H](C)CC)C(C)C)C(C)C [compound 18] (Ac-IVLSLD[dV]PIKLK([γGlu-C16 diacid])Q[Aib]LLKQERQKKQREQAEKNVQILEQV-NH2) | 3.55 | 10 | > 250
CCCCC(=O)N[C@H](C(=O)N[C@@H](CC(C)C)C(=O)N[C@@H](CO)C(=O)N[C@@H](CC(C)C)C(=O)N[C@@H](CC(=O)O)C(=O)N[C@@H](C(=O)N1CCC[C@H]1C(=O)N[C@H](C(=O)N[C@@H](CCCCN)C(=O)N[C@@H](CC(C)C)C(=O)N[C@@H](CCCCNC(=O)CC[C@H](NC(=O)CCCCCCCCCCC(=O)O)C(=O)O)C(=O)N[C@@H](CCCCN)C(=O)N[C@H](C(=O)N[C@@H](CC(C)C)C(=O)N[C@@H](CC(C)C)C(=O)N[C@@H](CCC(=O)O)C(=O)N[C@@H](CCC(N)=O)C(=O)N[C@@H](CCC(=O)O)C(=O)N[C@@H](CCCCN)C(=O)N[C@@H](CCC(N)=O)C(=O)N[C@@H](CCCCN)C(=O)N[C@@H](CCCCN)C(=O)N[C@@H](CCC(N)=O)C(=O)N[C@@H](CCCNC(=N)N)C(=O)N[C@@H](CCC(=O)O)C(=O)N[C@@H](CCC(N)=O)C(=O)N[C@@H](C)C(=O)N[C@@H](CCC(=O)O)C(=O)N[C@H](C(=O)N[C@@H](CC(N)=O)C(=O)NC(C)(C)C(=O)N[C@@H](CCC(N)=O)C(=O)N[C@H](C(=O)N[C@@H](CC(C)C)C(=O)N[C@@H](C)C(=O)N[C@@H](CCC(N)=O)C(=O)N[C@H](C(N)=O)C(C)C)[C@@H](C)CC)[C@@H](C)O)[C@@H](C)CC)[C@@H](C)CC)C(C)C)C(C)C [compound 185] (Pentanoyl-VLSLD[dV]PIKLK([γGlu-C12 diacid])KILLEQEKQKKQREQAETN[Aib]QILAQV-NH2) | 3.54 | 2 | > 250
CCCC(=O)N[C@H](C(=O)N[C@@H](CC(C)C)C(=O)N[C@@H](CO)C(=O)N[C@@H](CC(C)C)C(=O)N[C@@H](CC(=O)O)C(=O)N[C@@H](C(=O)N1CCC[C@H]1C(=O)N[C@H](C(=O)N[C@@H](CCCCN)C(=O)N[C@@H](CC(C)C)C(=O)N[C@@H](CCCCNC(=O)CC[C@H](NC(=O)CCCCCCCCCCCCCCC(=O)O)C(=O)O)C(=O)N[C@@H](CCCCN)C(=O)N[C@H](C(=O)N[C@@H](CC(C)C)C(=O)N[C@@H](CC(C)C)C(=O)N[C@@H](CCC(=O)O)C(=O)N[C@@H](CCC(N)=O)C(=O)N[C@@H](CCC(=O)O)C(=O)N[C@@H](CCCCN)C(=O)N[C@@H](CCC(N)=O)C(=O)N[C@@H](CCCCN)C(=O)N[C@@H](CCCCN)C(=O)N[C@@H](CCC(N)=O)C(=O)N[C@@H](CCCNC(=N)N)C(=O)N[C@@H](CCC(=O)O)C(=O)N[C@@H](CCC(N)=O)C(=O)N[C@@H](C)C(=O)N[C@@H](CCC(=O)O)C(=O)N[C@H](C(=O)N[C@@H](CC(N)=O)C(=O)NC(C)(C)C(=O)N[C@@H](CCC(N)=O)C(=O)N[C@H](C(=O)N[C@@H](CC(C)C)C(=O)N[C@@H](C)C(=O)N[C@@H](CCC(N)=O)C(=O)N[C@H](C(N)=O)C(C)C)[C@@H](C)CC)[C@@H](C)O)[C@@H](C)CC)[C@@H](C)CC)C(C)C)C(C)C [compound 79] (Butyryl-VLSLD[dV]PIKLK([γGlu-C16 diacid])KILLEQEKQKKQREQAETN[Aib]QILAQV-NH2) | 0.38 | 10 | > 250
CC[C@H](C)[C@H](NC(C)=O)C(=O)N[C@H](C(=O)N[C@@H](CC(C)C)C(=O)N[C@@H](CO)C(=O)N[C@@H](CC(C)C)C(=O)N[C@@H](CC(=O)O)C(=O)N[C@@H](C(=O)N1CCC[C@H]1C(=O)N[C@H](C(=O)N[C@@H](CCCCN)C(=O)N[C@@H](CC(C)C)C(=O)N[C@@H](CCCCNC(=O)COCCOCCNC(=O)COCCOCCNC(=O)CC[C@H](NC(=O)CCCCCCCCCCCCCCCCC(=O)O)C(=O)O)C(=O)N[C@@H](CCCCN)C(=O)N[C@H](C(=O)N[C@@H](CC(C)C)C(=O)N[C@@H](CC(C)C)C(=O)N[C@@H](CCC(=O)O)C(=O)N[C@@H](CCC(N)=O)C(=O)N[C@@H](CCC(=O)O)C(=O)N[C@@H](CCCCN)C(=O)N[C@@H](CCC(N)=O)C(=O)N[C@@H](CCCCN)C(=O)N[C@@H](CCCCN)C(=O)N[C@@H](CCC(N)=O)C(=O)N[C@@H](CCCNC(=N)N)C(=O)N[C@@H](CCC(=O)O)C(=O)N[C@@H](CCC(N)=O)C(=O)N[C@@H](C)C(=O)N[C@@H](CCC(=O)O)C(=O)N[C@H](C(=O)N[C@@H](CC(N)=O)C(=O)N[C@@H](CCC(=O)O)C(=O)N[C@@H](CCC(N)=O)C(=O)N[C@H](C(=O)N[C@@H](CC(C)C)C(=O)N[C@@H](C)C(=O)N[C@@H](CCC(N)=O)C(=O)N[C@H](C(N)=O)C(C)C)[C@@H](C)CC)[C@@H](C)O)[C@@H](C)CC)[C@@H](C)CC)C(C)C)C(C)C [compound 108] (Ac-IVLSLD[dV]PIKLK([AEEA-AEEA-γGlu-C18 diacid])KILLEQEKQKKQREQAETNEQILAQV-NH2) | 1.14 | 4 | > 250
